The target in this assay is T1, interaction of PKCι polypeptides with PAR6 polypeptides (Homo sapiens, UniProt P41743).
T1 construct: amino acids 1-113 or a full-length PKCι polypeptide; 6xHis; made in house
T1 sequence (P41743 10-122): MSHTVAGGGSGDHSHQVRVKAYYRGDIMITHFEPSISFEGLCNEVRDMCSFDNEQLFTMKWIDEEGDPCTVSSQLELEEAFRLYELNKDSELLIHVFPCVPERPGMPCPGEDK
The assay is described as follows: Secondary screen: PYN bound to plate-immobilised biotin-tagged PAR6. The format is binding. Particulars: for dose-response analysis using the secondary screening assay: increasing amounts, e.g. 0, 0.1, 1, 10, 100, and 100 μM. The protocol: Multiple test compounds that were classified as hits in the primary screen as well as additional related compounds were evaluated in a secondary screen designed as follows. Briefly, a 96-well microtiter plate coated with streptavidin (Nunc #436014) was incubated for 2-4 hours at room temperature with 100 μl of a 20-30 μg/ml solution of biotin-tagged PAR6 (whole polypeptide) in phosphate-buffered saline containing Tween-20 (PBST). Plates were washed twice with PBST, then once with incubation buffer (50 mM Tris, pH 8.0; 135 mM NaCl; 10% glycerol; 0.002% EDTA). Incubation buffer (50 μl) was added to each well. The compounds to be tested were added (10 μl) followed by PYN (50 μl) diluted in incubation buffer to an approximate concentration of 4000-5000 relative fluorescent units per 50 μl. Plates were incubated overnight at 4° C. Plates were washed twice with incubation buffer, after which 50 μl incubation buffer was added to retain moisture in the wells. The amount of PYN bound on the plates was determined by measuring yellow fluorescence (532/526) in a Typhoon imager. Fluorescence was quantitated by Softmax Pro software.
A dose-response analysis was performed using the secondary screening assay and increasing amounts (e.g., 0, 0.1, 1, 10, 100, and […]) of gossypol, hexestrol, thimerosal, ebselen, ATG, ATM, ellagic acid, cisplatin, apomorphine, or phenylmercuric acetate.

Where [1] appears, read: amount of PYN bound to biotin-tagged PAR6 plates.

Counter-ions that a name gives are not always drawn. Like-named read-outs stand apart in the source and are kept apart here.

Consider `C[n+]1c2cc(N)ccc2cc2ccc(N)cc21.[Cl-]` [Acriflavinium hydrochloride], for which the “Secondary Screen” value under setting [1] was “No effect”.

In the case of `N=C(N)NC(=O)c1nc(Cl)c(N)nc1N` [Amiloride], the “Secondary Screen” value under setting [1] was “No effect”. Consider `CCN(CC)Cc1cc(Nc2ccnc3cc(Cl)ccc23)ccc1O` [Amodiaquine], for which the “Secondary Screen” value under setting [1] was “No effect”. For the compound `CCCc1ncc(C[n+]2ccccc2C)c(N)n1` [Amprolium], the “Secondary Screen” value under setting [1] is listed as “No effect”.

With `CN1CCc2cccc3c2[C@H]1Cc1ccc(O)c(O)c1-3` [Apomorphine], the “dose-response analysis using the secondary screening assay” value (“dose-response analysis” for short) was “dose-dependent response was detected”. The “Secondary Screen” value under setting [1] is listed as “Confirmed”. In addition, the “Secondary Screen” value (amount of PYN bound to biotin-tagged PAR6 plates, listed as apomorphine) is listed as “confirmed”. For `COc1ccc(C(Cl)=C(c2ccc(OC)cc2)c2ccc(OC)cc2)cc1` [Chlorotrianisene], the “Secondary Screen” value under setting [1] is on record as “No effect (related compound”.

`Oc1cc(O)c2c(c1)O[C@H](c1ccc(O)c(O)c1)[C@@H](O)C2` [Cianidanol]: under setting [1], the “Secondary Screen” value is given as “No effect (related compound”. On to `N.N.[Cl][Pt][Cl]` [Cisplatin], for which the “dose-response analysis” value is reported as “dose-dependent response was detected”. Besides, the “Secondary Screen” value under setting [1] is listed as “Confirmed”. Besides, the “Secondary Screen” value (amount of PYN bound to biotin-tagged PAR6 plates, listed as cisplatin) was “confirmed”. As to `Cc1cc(N)c2ccccc2[n+]1CCCCCCCCCC[n+]1c(C)cc(N)c2ccccc21` [Dequalinium chloride], under setting [1], the “Secondary Screen” value is reported as “No effect”. `O=c1oc2c(O)c(O)cc3c(=O)oc4c(O)c(O)cc1c4c23` [Ellagic acid]: the “dose-response analysis” value was “dose-dependent response was detected”. In addition, the “Secondary Screen” value under setting [1] is “Confirmed”. Where the note is “amount of PYN bound to biotin-tagged PAR6 plates, listed as ellagic acid”, the “Secondary Screen” value is “confirmed”. In the case of `CNC[C@H](O)c1ccc(O)c(O)c1` [Epinephrine bitartrate], the “Secondary Screen” value under setting [1] is listed as “No effect”. Still for that read-out and setting: with `CCC(=O)O[C@H]1[C@H](O[C@@H]2[C@@H](C)[C@H](O[C@H]3C[C@@](C)(OC)[C@@H](O)[C@H](C)O3)[C@@H](C)C(=O)O[C@H](CC)[C@@](C)(O)[C@H](O)[C@@H](C)C(=O)[C@H](C)C[C@@]2(C)O)O[C@H](C)C[C@@H]1N(C)C` [Erythromycin propionate lauryl sulfate] the entry was “No effect”. With `C[C@]12CC[C@@H](O)C[C@H]1CC[C@@H]1[C@@H]2CC[C@]2(C)C(=O)CC[C@@H]12` [Etiocholanolone], the “Secondary Screen” value is given as “No effect”. Regarding `Nc1nc2ncc(CNc3ccc(C(=O)N[C@@H](CCC(=O)O)C(=O)O)cc3)nc2c(=O)[nH]1` [Folic acid], the “Secondary Screen” value under setting [1] was “No effect”. With `O=C1OCCN1/N=C/c1ccc([N+](=O)[O-])o1` [Furazolidone], the “Secondary Screen” value under setting [1] is reported as “No effect”. In the case of `O=C(O)c1cc(O)ccc1O` [Gentisic acid], the “Secondary Screen” value under setting [1] is recorded as “No effect”. As for `O=C(OCC(O)CO)c1ccccc1Nc1ccnc2cc(Cl)ccc12` (stereo not shown) [Glafenine], the “Secondary Screen” value under setting [1] is listed as “No effect”. For the compound `COc1ccc2c(c1OC)C(=O)O[C@@H]2[C@H]1c2cc3c(cc2CCN1C)OCO3` [Hydrastine], the “Secondary Screen” value under setting [1] is given as “No effect”. As for `O=C(O)c1cc2ccccc2c(Cc2c(O)c(C(=O)O)cc3ccccc23)c1O.OCCOCCN1CCN(C(c2ccccc2)c2ccc(Cl)cc2)CC1` [Hyydroxyzine pamoate], the “Secondary Screen” value under setting [1] is given as “No effect”. On to `CC(C)NCC(O)c1ccc(O)c(O)c1` (stereo not shown) [Isoproterenol hydrochloride], for which the “Secondary Screen” value under setting [1] is listed as “No effect”. For the compound `CC(=O)/N=c1/sc(S(N)(=O)=O)nn1C` [Methazolamide], the “Secondary Screen” value under setting [1] is “No effect”. The same measure, in the same setting: with `CC[C@@H](CO)NC(=O)[C@@H]1C=C2c3cccc4[nH]cc(c34)C[C@H]2N(C)C1` [Methylergonovine] the entry was “No effect”. With `CC[C@@]1([C@@H]2O[C@@H]([C@H]3O[C@@](O)(CO)[C@H](C)C[C@@H]3C)C[C@@H]2C)CC[C@H]([C@]2(C)CC[C@]3(C[C@H](O)[C@@H](C)[C@@H]([C@@H](C)[C@@H](OC)[C@H](C)C(=O)O)O3)O2)O1` [Monensin, sodium], the “Secondary Screen” value under setting [1] is “No effect”. `COc1c(C)c2c(c(O)c1C/C=C(\C)CCC(=O)O)C(=O)OC2` [Mycophenolic acid]: the “Secondary Screen” value under setting [1] is recorded as “No effect”. Turning to `C[C@@H]1O[C@@H](O[C@H]2[C@H](Oc3cc(O)c4c(c3)O[C@H](c3ccc(O)cc3)CC4=O)O[C@H](CO)[C@@H](O)[C@@H]2O)[C@H](O)[C@H](O)[C@H]1O` [Naringin], the “Secondary Screen” value under setting [1] is recorded as “No effect”. Same read-out and setting: for `Nc1ccc(/N=N/c2ccccc2)c(N)n1` [Phenazopyridine] the value was “No effect”.

In the case of `CC(=O)[O-].[Hg+][c]1ccccc1` [Phenylmercuric acetate], the “dose-response analysis” value is “dose-dependent response was detected”. In addition, under “amount of PYN bound to biotin-tagged PAR6 plates, acetate”, the “Secondary Screen” value was “Confirmed”. Moreover, the “Secondary Screen” value (amount of PYN bound to biotin-tagged PAR6 plates, listed as phenylmercuric acetate, acetate) is on record as “confirmed”. As to `COc1cc(NC(C)CCCN)c2ncccc2c1` (stereo not shown) [Primaquine phosphate], the “Secondary Screen” value under setting [1] is reported as “No effect”.

For `CC(C)[N+](C)(CCOC(=O)C1c2ccccc2Oc2ccccc21)C(C)C` [Propantheline bromide], the “Secondary Screen” value under setting [1] is listed as “No effect”. On to `CN1CCCN=C1/C=C/c1cccs1` [Pyrantel pamoate], for which the “Secondary Screen” value runs as follows: under setting [1], “Confirmed”; (amount of PYN bound to biotin-tagged PAR6 plates, listed as pyrantel pamoate) “confirmed”. Consider `O=C1C=CC(=C(c2ccc(O)cc2)c2ccc(O)cc2)C=C1` [Rosolic acid], for which the “Secondary Screen” value under setting [1] was “No effect”. Same read-out and setting: for `CC1=C(CC(=O)O)c2cc(F)ccc2/C1=C\c1ccc([S+](C)[O-])cc1` (stereo not shown) [Sulindac] the value was “No effect”.

`C[CH2][Hg][S]c1ccccc1C(=O)[O-].[Na+]` [Thimerosal]: the “dose-response analysis” value was “dose-dependent response was detected”. The “Secondary Screen” value under setting [1] is on record as “Confirmed”. For the setting “amount of PYN bound to biotin-tagged PAR6 plates, listed as thimerosal”, the “Secondary Screen” value is listed as “confirmed”. Regarding `CC1=C(/C=C/C(C)=C/C=C/C(C)=C/C(=O)O)C(C)(C)CCC1` [Tretinon], under setting [1], the “Secondary Screen” value is “No effect”. On the same count and under the same terms, for `CN(C)CCCN1c2ccccc2Sc2ccc(C(F)(F)F)cc21` [Triflupromazine] the value was “No effect”; for `C[C@]12CC[C@@H]3c4ccc(O)cc4CC[C@H]3[C@@H]1CC[C@@H]2O` [b-estradiol], “had no effect)”; for `CC1=C(C(=O)O)N2C(=O)[C@@H](NC(=O)[C@H](N)c3ccc(O)cc3)[C@H]2SC1` [cefadroxil], “had no effect)”. `[H]/N=C(\N/C(=N/[H])NCCCCCCNC(=N)NC(=N)Nc1ccc(Cl)cc1)Nc1ccc(Cl)cc1` [chlorhexidine]: the “Secondary Screen” value under setting [1] is on record as “No effect”.

For `O=C(CCCN1CC=C(n2c(=O)[nH]c3ccccc32)CC1)c1ccc(F)cc1` [droperidol], the “Secondary Screen” value under setting [1] is reported as “droperidol had no effect)”.

On to `CCn1cc(C(=O)O)c(=O)c2cc(F)c(N3CCNCC3)nc21` [enoxacin], for which the “Secondary Screen” value under setting [1] is given as “lomefloxacin had no effect)”. `COc1ccc([C@@H]2CC(=O)c3c(O)cc(O[C@@H]4O[C@H](CO[C@@H]5O[C@@H](C)[C@H](O)[C@@H](O)[C@H]5O)[C@@H](O)[C@H](O)[C@H]4O)cc3O2)cc1O` [hespiridin]: under setting [1], the “Secondary Screen” value is given as “hespiridin had no effect)”. Turning to `CC[C@H](c1ccc(O)cc1)[C@@H](CC)c1ccc(O)cc1` [hexestrol], the “dose-response analysis” value was “dose-dependent response was detected”. Further, the “Secondary Screen” value under setting [1] was “hexestrol was confirmed)”. For the compound `CCn1cc(C(=O)O)c(=O)c2cc(F)c(N3CCNC(C)C3)c(F)c21` (stereo not shown) [lomefloxacin], the “Secondary Screen” value under setting [1] is “lomefloxacin had no effect)”. Take Antimycin A: the “Secondary Screen” value under setting [1] is “No effect”. In the case of Benzalkonium chloride, under setting [1], the “Secondary Screen” value was “No effect”. The same measure, in the same setting: with Veratrine sulfate the entry was “No effect”.
